Test results published in US12384770B2, “Heterocyclic compound” (Takeda Pharmaceutical Company Limited, priority 2019, dated 2025).

Target: T1, HDAC6 enzyme (Homo sapiens, UniProt Q9UBN7)
T1 construct: HDAC6 enzyme prepared by transducing full length HDAC6 gene into Sf-9 insect cells; GST; purchased SignalChem; host or cells: Sf-9 insect cells
T1 sequence (Q9UBN7 1-1215): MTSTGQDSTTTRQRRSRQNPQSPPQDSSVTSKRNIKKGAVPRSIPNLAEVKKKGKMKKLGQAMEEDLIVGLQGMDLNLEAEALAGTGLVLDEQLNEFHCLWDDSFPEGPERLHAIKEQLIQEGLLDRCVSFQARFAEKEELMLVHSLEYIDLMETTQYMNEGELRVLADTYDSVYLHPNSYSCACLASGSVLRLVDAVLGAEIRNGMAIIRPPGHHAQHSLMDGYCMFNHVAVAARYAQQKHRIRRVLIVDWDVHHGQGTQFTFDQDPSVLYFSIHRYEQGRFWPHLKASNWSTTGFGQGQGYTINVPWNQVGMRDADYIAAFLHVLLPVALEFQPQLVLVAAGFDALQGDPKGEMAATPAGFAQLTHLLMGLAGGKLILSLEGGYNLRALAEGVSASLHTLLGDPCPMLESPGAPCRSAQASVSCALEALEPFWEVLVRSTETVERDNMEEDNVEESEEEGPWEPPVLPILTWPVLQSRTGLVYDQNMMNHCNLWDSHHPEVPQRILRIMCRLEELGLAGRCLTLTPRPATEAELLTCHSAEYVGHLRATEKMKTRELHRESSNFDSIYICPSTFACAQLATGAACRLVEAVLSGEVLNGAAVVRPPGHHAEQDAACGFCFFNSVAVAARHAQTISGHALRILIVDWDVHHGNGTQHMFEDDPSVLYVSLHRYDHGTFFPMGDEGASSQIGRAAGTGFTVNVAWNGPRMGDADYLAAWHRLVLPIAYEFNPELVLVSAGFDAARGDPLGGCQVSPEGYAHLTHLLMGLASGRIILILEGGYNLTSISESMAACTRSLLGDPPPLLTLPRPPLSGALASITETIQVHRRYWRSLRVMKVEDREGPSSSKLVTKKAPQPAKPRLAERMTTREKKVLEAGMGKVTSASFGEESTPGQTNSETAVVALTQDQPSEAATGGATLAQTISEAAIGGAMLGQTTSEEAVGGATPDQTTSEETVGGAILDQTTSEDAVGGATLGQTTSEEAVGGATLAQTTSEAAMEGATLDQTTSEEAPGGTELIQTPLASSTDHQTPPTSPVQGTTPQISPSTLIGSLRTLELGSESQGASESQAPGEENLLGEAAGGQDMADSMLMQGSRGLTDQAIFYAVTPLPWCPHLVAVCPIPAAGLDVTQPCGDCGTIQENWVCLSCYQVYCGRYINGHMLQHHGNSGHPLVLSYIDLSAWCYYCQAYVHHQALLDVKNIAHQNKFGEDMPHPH
Assay: HDAC6 enzyme inhibitory assay (HDAC-Glo I/II Assay kit)
Assay type: biochemical
Details: wells without enzyme = 100% inhibition, read-out: HDAC6 inhibitory rate (%) (10 μM)
In short: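 Full-length GST-purified HDAC6 from Sf-9 cells preincubated with compound 60 min at room temperature in Tris-HCl pH 7.5 buffer with MgCl2, KCl, NaCl, glutathione, Tween-20. Substrate-developer reaction 20 min, luminescence read; no-enzyme wells set as 100% inhibition.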

SMILES | inhibition at 10 µM [%]
O=C1c2cc(-c3nnc(C(F)F)o3)ccc2CN1[C@@H](c1ccccn1)[C@H](O)c1ccc(F)cn1 [Example 4, 6-[5-(difluoromethyl)-1,3,4-oxadiazol-2-yl]-2-[(1S,2S)-2-(5-fluoropyridin-2-yl)-2-hydroxy-1-(pyridin-2-yl)ethyl]-2,3-dihydro-1H-isoindol-1-one] | 100
O=C1c2cc(-c3nnc(C(F)F)o3)ccc2CN1[C@H](c1ccccn1)[C@@H](O)c1cccc(F)n1 [Example 7, 6-[5-(difluoromethyl)-1,3,4-oxadiazol-2-yl]-2-[(1R,2R)-2-(6-fluoropyridin-2-yl)-2-hydroxy-1-(pyridin-2-yl)ethyl]-2,3-dihydro-1H-isoindol-1-one] | 102
O=C1c2cc(-c3nnc(C(F)F)o3)ccc2CN1[C@@H](c1ccccn1)[C@H](O)c1cccc(F)n1 [Example 8, 6-[5-(difluoromethyl)-1,3,4-oxadiazol-2-yl]-2-[(1S,2S)-2-(6-fluoropyridin-2-yl)-2-hydroxy-1-(pyridin-2-yl)ethyl]-2,3-dihydro-1H-isoindol-1-one] | 99
O=C1c2cc(-c3nnc(C(F)F)o3)ccc2CN1[C@H](c1ccccc1)[C@@H](O)c1ccccc1 [Example 11, 6-[5-(difluoromethyl)-1,3,4-oxadiazol-2-yl]-2-[(1R,2S)-2-hydroxy-1,2-diphenylethyl]-2,3-dihydro-1H-isoindol-1-one] | 99
O=C1c2cc(-c3nnc(C(F)F)o3)ccc2CN1[C@H](c1ccccc1)[C@H](O)c1ccccc1 [Example 12, 6-[5-(difluoromethyl)-1,3,4-oxadiazol-2-yl]-2-[(1R,2R)-2-hydroxy-1,2-diphenylethyl]-2,3-dihydro-1H-isoindol-1-one] | 100
O=C1c2cc(-c3nnc(C(F)F)o3)ccc2CN1[C@@H](c1ccccc1)[C@@H](O)c1ccccc1 [Example 13, 6-[5-(difluoromethyl)-1,3,4-oxadiazol-2-yl]-2-[(1S,2S)-2-hydroxy-1,2-diphenylethyl]-2,3-dihydro-1H-isoindol-1-one] | 99
O=C1c2cc(-c3nnc(C(F)F)o3)ccc2CN1[C@@H](c1ccccc1)[C@H](O)c1ccccc1 [Example 14, 6-[5-(difluoromethyl)-1,3,4-oxadiazol-2-yl]-2-[(1S,2R)-2-hydroxy-1,2-diphenylethyl]-2,3-dihydro-1H-isoindol-1-one] | 100
O=C1c2cc(-c3nnc(C(F)F)o3)ccc2CN1[C@H](C1CCOCC1)[C@@H](O)c1cccc(F)c1 [Example 64, 6-[5-(difluoromethyl)-1,3,4-oxadiazol-2-yl]-2-[(1R,2S)-2-(3-fluorophenyl)-2-hydroxy-1-(oxan-4-yl)ethyl]-2,3-dihydro-1H-isoindol-1-one] | 100
O=C1c2cc(-c3nnc(C(F)F)o3)ccc2CN1[C@H](C1CCOCC1)[C@H](O)c1cccc(F)c1 [Example 149, 6-[5-(difluoromethyl)-1,3,4-oxadiazol-2-yl]-2-[(1R,2R)-2-(3-fluorophenyl)-2-hydroxy-1-(oxan-4-yl)ethyl]-2,3-dihydro-1H-isoindol-1-one] | 100

The remaining lines, values ahead:

inhibition at 10 µM [%] | SMILES
100 | O=C1c2cc(-c3nnc(C(F)F)o3)ccc2CN1[C@H](C1CC1)[C@@H](O)c1ccc(F)cc1 [Example 9, 2-[(1R,2S)-1-cyclopropyl-2-(4-fluorophenyl)-2-hydroxyethyl]-6-[5-(difluoromethyl)-1,3,4-oxadiazol-2-yl]-2,3-dihydro-1H-isoindol-1-one]
100 | O=C1c2cc(-c3nnc(C(F)F)o3)ccc2CN1[C@H](C1CC1)[C@@H](O)c1cccc(F)c1 [Example 10, 2-[(1R,2S)-1-cyclopropyl-2-(3-fluorophenyl)-2-hydroxyethyl]-6-[5-(difluoromethyl)-1,3,4-oxadiazol-2-yl]-2,3-dihydro-1H-isoindol-1-one]
100 | O=C1c2cc(-c3nnc(C(F)F)o3)ccc2CN1[C@H](C1CC1)[C@@H](O)c1ccccn1 [Example 38, 2-[(1R,2R)-1-cyclopropyl-2-hydroxy-2-(pyridin-2-yl)ethyl]-6-[5-(difluoromethyl)-1,3,4-oxadiazol-2-yl]-2,3-dihydro-1H-isoindol-1-one]
100 | O=C1c2cc(-c3nnc(C(F)F)o3)ccc2CN1[C@H](C1CC1)[C@@H](O)c1ccc(F)cn1 [Example 57, 2-[(1R,2R)-1-cyclopropyl-2-(5-fluoropyridin-2-yl)-2-hydroxyethyl]-6-[5-(difluoromethyl)-1,3,4-oxadiazol-2-yl]-2,3-dihydro-1H-isoindol-1-one]
100 | O=C1c2cc(-c3nnc(C(F)F)o3)ccc2CN1[C@H](C1CC1)[C@@H](O)c1ccc(F)nc1 [Example 63, 2-[(1R,2S)-1-cyclopropyl-2-(6-fluoropyridin-3-yl)-2-hydroxyethyl]-6-[5-(difluoromethyl)-1,3,4-oxadiazol-2-yl]-2,3-dihydro-1H-isoindol-1-one]
100 | O=C1c2cc(-c3nnc(C(F)F)o3)ccc2CN1[C@H](C1CCOCC1)[C@@H](O)c1ccc(F)cc1 [Example 72, 6-[5-(difluoromethyl)-1,3,4-oxadiazol-2-yl]-2-[(1R,2S)-2-(4-fluorophenyl)-2-hydroxy-1-(oxan-4-yl)ethyl]-2,3-dihydro-1H-isoindol-1-one]
100 | O=C1c2cc(-c3nnc(C(F)F)o3)ccc2CN1[C@H](C1CC1)[C@H](O)c1ccc(F)cc1 [Example 137, 2-[(1R,2R)-1-cyclopropyl-2-(4-fluorophenyl)-2-hydroxyethyl]-6-[5-(difluoromethyl)-1,3,4-oxadiazol-2-yl]-2,3-dihydro-1H-isoindol-1-one]
101 | O=C1c2cc(-c3nnc(C(F)F)o3)ccc2CN1[C@H](C1CCOCC1)[C@H](O)c1ccc(F)cc1 [Example 148, 6-[5-(difluoromethyl)-1,3,4-oxadiazol-2-yl]-2-[(1R,2R)-2-(4-fluorophenyl)-2-hydroxy-1-(oxan-4-yl)ethyl]-2,3-dihydro-1H-isoindol-1-one]
99 | O=C1c2cc(-c3nnc(C(F)F)o3)ccc2CN1[C@H](C1CC1)[C@H](O)c1ccc(F)cn1 [Example 150, 2-[(1R,2S)-1-cyclopropyl-2-(5-fluoropyridin-2-yl)-2-hydroxyethyl]-6-[5-(difluoromethyl)-1,3,4-oxadiazol-2-yl]-2,3-dihydro-1H-isoindol-1-one]
